According to ChEMBL document CHEMBL1641449, “A novel transition state analog inhibitor of guanase based on azepinomycin ring structure: Synthesis and biochemical assessment of enzyme inhibition” (Bioorg Med Chem Lett, 2011):

Biological target: T1, Guanine deaminase (Homo sapiens, UniProt Q9Y2T3)
T1 sequence (Q9Y2T3 whole entry): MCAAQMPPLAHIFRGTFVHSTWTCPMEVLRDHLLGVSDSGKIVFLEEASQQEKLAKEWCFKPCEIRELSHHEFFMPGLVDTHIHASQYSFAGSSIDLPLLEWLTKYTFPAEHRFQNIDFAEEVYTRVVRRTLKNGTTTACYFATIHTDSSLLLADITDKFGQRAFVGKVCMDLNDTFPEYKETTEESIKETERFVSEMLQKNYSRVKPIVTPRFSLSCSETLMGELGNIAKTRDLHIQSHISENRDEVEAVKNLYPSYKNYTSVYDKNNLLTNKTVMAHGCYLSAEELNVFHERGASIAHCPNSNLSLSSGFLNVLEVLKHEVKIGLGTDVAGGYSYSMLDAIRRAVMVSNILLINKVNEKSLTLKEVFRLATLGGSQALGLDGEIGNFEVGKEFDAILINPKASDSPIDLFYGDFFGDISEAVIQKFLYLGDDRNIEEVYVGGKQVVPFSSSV
Assay: Competitive inhibition of guanase by Lineweaver-Burk plot analysis

O=C(NC1(CO)NC(=O)c2ncn(Cc3ccccc3)c2NC1=O)OCc1ccccc1 (stereo unspecified)
Ki: 16.7 µM
